Laboratory results: patent US20180263996A1, “ARYL SULTAM DERIVATIVES AS RORc MODULATORS” (Genentech, Inc., priority 2015, published 2018)

These molecules were tested against T1, RORc (Homo sapiens, UniProt P51449) (assay: In Vitro RORc Ligand Binding Assay). Conditions: IC50 values for RORc.
T1 construct: host or cells: E. coli
T1 sequence (P51449 269-508 limits assumed): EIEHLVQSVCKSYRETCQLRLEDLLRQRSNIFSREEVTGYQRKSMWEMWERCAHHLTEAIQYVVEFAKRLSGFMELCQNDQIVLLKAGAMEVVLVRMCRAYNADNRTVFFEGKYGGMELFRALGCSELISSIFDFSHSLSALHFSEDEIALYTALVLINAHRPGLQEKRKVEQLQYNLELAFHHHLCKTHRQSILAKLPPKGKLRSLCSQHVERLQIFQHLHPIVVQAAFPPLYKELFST
Protocol: This assay was used to determine a compound's potency in inhibiting activity of RORc by determining, Kiapp, IC50, or percent inhibition values.
On day of the assay, 100 uL of 0.05% CHAPS (in deionized H2O) was added to all wells of the GFB Unifilter plate and allowed soak for 1 h. A wash buffer of 50 mM HEPES (pH 7.4), 150 mM NaCl, and 5 mM MgCl2 was prepared to wash the filter plate. To prepare an assay buffer, BSA was added to the wash buffer to reach 0.01% and DTT was added to reach 1 mM.
The 20× compound stocks were diluted in DMSO with Assay Buffer 4-fold to reach 5× the final test concentration in 25% DMSO (10 uL compound+30 uL Assay Buffer). Solutions were mixed by aspiration several times with a pipette set on 50 uL volume.
For two point screening, 10 mM stock compound solutions were diluted in DMSO to obtain 200 uM (20× the high test concentration) and then diluted 10-fold further to reach 20 uM (20× the low test concentration). The 20× stocks were diluted 4-fold with Assay Buffer (10 uL compound+30 uL Assay Buffer) to reach 5× the test concentrations (50 uM and 5 uM) and 10 uL were added to two assay plates for the duplicate wells. With each concentration tested on 2 plates, each set of 80 compounds used 4 assay plates (1 uM and 10 uM, with n=2).
For 25-hydroxycholesterol in 25% DMSO/75% Assay Buffer; 10 uL per well was used for NSB samples. Wells for Total Binding and No Receptor sample determination contained 10 uL of 25% DMSO/75% Assay Buffer per well.
Add 20 uL to all wells to reach 6 nM final concentration in the assay.
Stock receptor solution was diluted in assay buffer to obtain 1.5 ug/mL in Assay Buffer. 20 uL was added to all wells. For No Receptor samples, 20 uL Assay Buffer was substituted for receptor solution.
Assay plates were 96-well polypropylene V-bottom plates. […] 10 uL of 25% DMSO/75% Assay Buffer was added to Total Binding or No Receptor wells. 10 uL of 5 uM 25-hydroxycholesterol in 25% DMSO/75% Assay Buffer was added to NSB wells. […] 20 uL of 1.5 ug/mL RORc receptor was added to wells (or 40 uL Assay Buffer to No R wells). Following addition to the wells, the plates were incubated 3 h at 25° C.
Using a Packard Filtermate Harvester, the filter plate were washed 4 times following transfer of the incubated samples. Plates were dry-filtered completely (2 h at 50° C. or overnight at room temperature). 50 uL Microscint 0 was added to all wells and read on Topcount protocol Inverted.
Final concentrations were as follows: 50 mM HEPES buffer (pH 7.4); 150 mM NaCl; 1 mM DTT; 5 mM MgCl2; 0.01% BSA; 5% DMSO; 0.6 ug/mL RORc receptor; 6 nM 25-[^3H]hydroxycholesterol. For NSB wells, 1 uM 25-hydroxycholesterol was also present.

Row | SMILES | IC50
1 | CC(NC(=O)c1csc(N)n1)c1cc(F)c(CN2[C@@H](C)CC[C@H](c3ccccc3)S2(=O)=O)cc1F (stereo in doubt) [Compound 78, 2-amino-N-[1-[2,5-difluoro-4-[[(3S,6R)-3-methyl-1,1-dioxo-6-phenyl-thiazinan-2-yl]methyl]phenyl]ethyl]thiazole-4-carboxamide] | 215 nM
2 | Cc1n[nH]cc1C(=O)NC(C)c1cc(F)c(CN2[C@@H](C)CC[C@H](c3ccccc3)S2(=O)=O)cc1F (stereo in doubt) [Compound 53, N-[1-[2,5-difluoro-4-[[(3S,6R)-3-methyl-1,1-dioxo-6-phenyl-thiazinan-2-yl]methyl]phenyl]ethyl]-3-methyl-1H-pyrazole-4-carboxamide] | 14 nM
3 | C[C@H]1CC[C@H](c2ccccc2)S(=O)(=O)N1Cc1ccc(C2(C(=O)NC3(C#N)CC3)CCOCC2)cc1F (stereo in doubt) [Compound 36, N-(1-cyanocyclopropyl)-4-[3-fluoro-4-[[(3S,6R)-3-methyl-1,1-dioxo-6-phenyl-thiazinan-2-yl]methyl]phenyl]tetrahydropyran-4-carboxamide] | 234 nM
4 | C[C@H]1CC[C@H](c2ccccc2)S(=O)(=O)N1Cc1ccc(C2(C(=O)NCC3CC3)CCOCC2)cc1F [Compound 31, N-(cyclopropylmethyl)-4-[3-fluoro-4-[[(3S,6R)-3-methyl-1,1-dioxo-6-phenyl-thiazinan-2-yl]methyl]phenyl]tetrahydropyran-4-carboxamide] | 83.5 nM
5 | C[C@H]1CC[C@H](c2ccccc2)S(=O)(=O)N1Cc1cc(F)c(C2(C(=O)N[C@H]3C[C@@H](O)C3)CCOCC2)cc1F [Compound 38, 4-[2,5-difluoro-4-[[(3S,6R)-3-methyl-1,1-dioxo-6-phenyl-thiazinan-2-yl]methyl]phenyl]-N-(3-hydroxycyclobutyl) tetrahydropyran-4-carboxamide] | 32.6 nM
6 | CC(NC(=O)c1csnn1)c1cc(F)c(CN2[C@@H](C)CC[C@H](c3ccccc3)S2(=O)=O)cc1F (stereo in doubt) [Compound 79, N-[1-[2,5-difluoro-4-[[(3S,6R)-3-methyl-1,1-dioxo-6-phenyl-thiazinan-2-yl]methyl]phenyl]ethyl]thiadiazole-4-carboxamide] | 3 nM
7 | CC(NC(=O)c1ccn(C)n1)c1cc(F)c(CN2[C@@H](C)CC[C@H](c3ccccc3)S2(=O)=O)cc1F (stereo in doubt) [Compound 58, N-[1-[2,5-difluoro-4-[[(3S,6R)-3-methyl-1,1-dioxo-6-phenyl-thiazinan-2-yl]methyl]phenyl]ethyl]-1-methyl-pyrazole-3-carboxamide] | 254 nM
8 | CC(NC(=O)c1cc[nH]n1)c1cc(F)c(CN2[C@@H](C)CC[C@H](c3ccccc3)S2(=O)=O)cc1F (stereo in doubt) [Compound 68, N-[1-[2,5-difluoro-4-[[(3S,6R)-3-methyl-1,1-dioxo-6-phenyl-thiazinan-2-yl]methyl]phenyl]ethyl]-1H-pyrazole-3-carboxamide] | 83.3 nM
9 | COc1cc(C(=O)NC(C)c2cc(F)c(CN3[C@@H](C)CC[C@H](c4ccccc4)S3(=O)=O)cc2F)on1 (stereo in doubt) [Compound 74, N-[1-[2,5-difluoro-4-[[(3S,6R)-3-methyl-1,1-dioxo-6-phenyl-thiazinan-2-yl]methyl]phenyl]ethyl]-3-methoxy-isoxazole-5-carboxamide] | 7.3 nM
10 | C[C@@H](NC1=CC(=O)CCC1)c1cc(F)c(CN2[C@@H](C)CC[C@H](c3ccccc3)S2(=O)=O)cc1F [Compound 22, 3-[[(1R)-1-[2,5-difluoro-4-[[(3S,6R)-3-methyl-1,1-dioxo-6-phenyl-thiazinan-2-yl]methyl]phenyl]ethyl]amino] cylohex-2-en-1-one] | 265 nM
11 | C[C@H]1CC[C@H](c2ccccc2)S(=O)(=O)N1Cc1cc(F)c([C@]2(C(N)=O)C[C@](C)(O)C2)cc1F [Compound 48, 1-[2,5-difluoro-4-[[(3S,6R)-3-methyl-1,1-dioxo-6-phenyl-thiazinan-2-yl]methyl]phenyl]-3-hydroxy-3-methyl-cyclobutanecarboxamide] | 4.7 nM
12 | CC(NC(=O)c1cnn(C)c1)c1cc(F)c(CN2[C@@H](C)CC[C@H](c3ccccc3)S2(=O)=O)cc1F (stereo in doubt) [Compound 61, N-[1-[2,5-difluoro-4-[[(3S,6R)-3-methyl-1,1-dioxo-6-phenyl-thiazinan-2-yl]methyl]phenyl]ethyl]-1-methyl-pyrazole-4-carboxamide] | 14 nM
13 | C[C@H]1CC[C@H](c2ccccc2)S(=O)(=O)N1Cc1cc(F)c([C@@]23C[C@@H]2COC3=O)cc1F [Compound 43, (1R,5S)-1-[2,5-difluoro-4-[[(3S,6R)-3-methyl-1,1-dioxo-6-phenyl-thiazinan-2-yl]methyl]phenyl]-3-oxabicyclo[3.1.0]hexan-2-one] | 39.4 nM
14 | C[C@H]1CC[C@H](c2ccccc2)S(=O)(=O)N1Cc1cc(F)c([C@H](OCC2CC2)C(N)=O)cc1F [Compound 19, (2S)-2-(cyclopropylmethoxy)-2-[2,5-difluoro-4-[[(3S,6R)-3-methyl-1,1-dioxo-6-phenyl-thiazinan-2-yl]methyl]phenyl]acetamide] | 50.7 nM
15 | C[C@H]1CC[C@H](c2ccccc2)S(=O)(=O)N1Cc1ccc(C2(C(=O)NC3CC(O)C3)CCOCC2)cc1F (stereo partly drawn) [Compound 34, 4-[3-fluoro-4-[[(3S,6R)-3-methyl-1,1-dioxo-6-phenyl-thiazinan-2-yl]methyl]phenyl]-N-(3-hydroxycyclobutyl)tetrahydropyran-4-carboxamide] | 13.6 nM
16 | CNC(=C[N+](=O)[O-])NC(C)c1cc(F)c(CN2C(C)CCC(c3ccccc3)S2(=O)=O)cc1F [Compound 28, N1′-[1-[2,5-difluoro-4-[[(3S,6R)-3-methyl-1,1-dioxo-6-phenyl-thiazinan-2-yl]methyl]phenyl]ethyl]-N1-methyl-2-nitro-ethene-1,1-diamine] | 20 nM
17 | C[C@H]1CC[C@H](c2ccccc2)S(=O)(=O)N1Cc1cc(F)c([C@H](OC2COC2)C(N)=O)cc1F [Compound 9, (2S)-2-[2,5-difluoro-4-[[(3S,6R)-3-methyl-1,1-dioxo-6-phenyl-thiazinan-2-yl]methyl]phenyl]-2-(oxetan-3-yloxy)acetamide] | 34.8 nM
18 | C[C@H]1CC[C@H](c2ccccc2)S(=O)(=O)N1Cc1cc(F)c(C2=CC(=O)C2)cc1F [Compound 15, 3-[2,5-difluoro-4-[[(3S,6R)-3-methyl-1,1-dioxo-6-phenyl-thiazinan-2-yl]methyl]phenyl]cyclobut-2-en-1-one] | 6.5 nM
19 | C[C@H]1CC[C@H](c2ccccc2)S(=O)(=O)N1Cc1cc(F)c([C@@](C)(CO)C(N)=O)cc1F [Compound 10, (2S)-2-[2,5-difluoro-4-[[(3S,6R)-3-methyl-1,1-dioxo-6-phenyl-thiazinan-2-yl]methyl]phenyl]-3-hydroxy-2-methyl-propanamide] | 35.4 nM
20 | CC(NC(=O)c1c[nH]cn1)c1cc(F)c(CN2[C@@H](C)CC[C@H](c3ccccc3)S2(=O)=O)cc1F (stereo in doubt) [Compound 59, N-[1-[2,5-difluoro-4-[[(3S,6R)-3-methyl-1,1-dioxo-6-phenyl-thiazinan-2-yl]methyl]phenyl]ethyl]-1H-imidazole-4-carboxamide] | 93 nM
21 | C[C@H]1CC[C@H](c2ccccc2)S(=O)(=O)N1Cc1ccc(C2(COCC3COC3)CCOCC2)cc1F [Compound 3, (3S,6R)-2-[[2-fluoro-4-[4-(oxetan-3-ylmethoxymethyl)tetrahydropyran-4-yl]phenyl]methyl]-3-methyl-6-phenyl-thiazinane 1,1-dioxide] | 44.5 nM
22 | Cc1nnc(C(=O)NC(C)c2cc(F)c(CN3[C@@H](C)CC[C@H](c4ccccc4)S3(=O)=O)cc2F)o1 (stereo in doubt) [Compound 73, N-[1-[2,5-difluoro-4-[[(3S,6R)-3-methyl-1,1-dioxo-6-phenyl-thiazinan-2-yl]methyl]phenyl]ethyl]-5-methyl-1,3,4-oxadiazole-2-carboxamide] | 9.3 nM
